Test results taken from patent US20180207164A1, “COMBINATION THERAPIES FOR TREATING CANCERS” (GILEAD SCIENCES, INC., priority 2015, published 2018).

Assays:
[1] = tested on: primary chronic lymphocytic leukemia (CLL) cells; experiment: Apoptosis induction in primary CLL cells with αIgM/αIgG/αCD40 stimulation, without HS-5 co-culture (Annexin V/Live-Dead flow cytometry); format: cell-based, human; conditions: for Maximal % Apoptosis: HS-5 (no co-culture), 66-72 hr post-compound addition, duplicate wells; for apoptosis observed in all CLL samples tested: at 30 nM; for average maximal proportion of apoptotic cells: primary αIgM/αIgG/αCD40 stimulated CLL cells
Method: (§1) The HS-5 human stromal cell line was obtained from ATCC (American Tissue Type Collection). Cells were maintained in lymphocyte growth medium (LGM): RPMI-1640 supplemented with 10% FBS, 1% penicillin-streptomycin, 10 mM HEPES, 1 mM sodium pyruvate, 55 μM β-mercaptoethanol, and 2 mM GlutaMax. With informed consent, whole blood was obtained from CLL subjects.
(§2) Peripheral blood mononuclear cells (PBMCs) were prepared from human whole blood obtained from CLL patients by Ficoll-separation in CPT tubes according to manufacturer's directions (Becton Dickinson). Isolated PBMCs were cryopreserved in freezing medium (50% IMDM, 40% FBS, and 10% DMSO) and held in the gas phase of liquid nitrogen until use. One day prior to plating of primary CLL cells, wells of a U-bottom 96-well plate were coated with 3.0×10^4 HS-5 cells and allowed to adhere overnight in a humidified 37° C. incubator supplemented with 5% CO2. The % CD5+/CD19^+ cells isolated were quantified via FACS staining.
(§3) Frozen primary CLL PBMCs were thawed, washed once in LGM, and rested for 3-5 hours in LGM at 37° C. prior to plating. Cells were then centrifuged at room temperature for 10 minutes and resuspended at 1.0-2.5×10^5 cells/mL in LGM for plating. Assay wells were set up in U-bottom 96-well tissue culture plates in the absence or presence of HS-5 co-culture. Compounds were diluted as described below. Assay plates were incubated for 1 hour prior to stimulation with αIgM/αIgG (7.8 μg/well) and αCD40 (4 μg/well). Positive and negative controls were set up. Cells were incubated for 66-72 hours in a 37° C. CO2 incubator and assayed for apoptosis.
(§4) Compounds were diluted from 10 mM DMSO stock solutions. Compound combinations were prepared by transferring 2 μl each of the appropriate working compound solutions or vehicle to wells of a 96-well polypropylene plate. A daughter plate was made by 100× dilution into media. The final assay plate was made by 10× dilution into the final assay plate described above. The final DMSO concentration was 0.1%.
(§5) Cells were transferred to a deep well (2 mL) assay block and rinsed with 1 mL cation free PBS (PBS^−/−). Cells were resuspended in Invitrogen's aqua Live/Dead reagent according to manufacturer's instructions and incubated 30 minutes on ice. Aqua Live/Dead was quenched with an equal volume of PBS^+/+ and 4% FBS (FACS buffer). Cells were centrifuged and labeled with αCD5-PE, αCD19-BV421 and AnnexinV-APC in a total volume of 80 μL and incubated 30 minutes on ice. After labeling, cells were rinsed twice in FACS buffer and then fixed with BD Fixation buffer for 30 minutes on ice. Cells were rinsed twice with FACS buffer and analyzed.
(§6) The percentage of CD5^+/CD19^+ cells was quantified in the PBMCs to provide an assessment of the malignant cell population in each sample. To evaluate apoptosis, flow cytometric sampling of 50 μL cell suspensions (5,000-25,000 total events) were collected on a BD FACS Canto II instrument using a high throughput screen (HTS) autosampler. The CD5^+CD19^+ population was gated, and data were collected for the Annexin V^−/Live-Dead^−, AnnexinV^+/Live-Dead^−, AnnexinV^+/Live-Dead^+, and Annexin V^−/Live-Dead^+ CLL populations.
(§7) Annexin V^+/Live-Dead^− or Annexin V^−/Live-Dead^+ cells were gated and percentages of positive cells in each population were recorded for each well and data were extracted to a flow cytometry standard (fcs) file. Average percentages of Annexin V^+/Live-Dead^− and Annexin V^−/Live-Dead^+ were determined.
EC50 values were calculated based on log concentration of drug and percent Annexin V^+/Live-Dead^− and Annexin V^−/Live-Dead^+ cells using a 4 parameter nonlinear regression algorithm in Prism 6.01 of the GraphPad software (San Diego, Calif. USA, www.graphpad.com). Each run generated a single EC50 based on duplicate well values at each compound dilution. EC50 values and Hill slopes generated from each curve fit were reported. […]

[2] = tested on: primary CLL cells + HS-5 co-culture; experiment: Apoptosis induction in primary CLL cells with αIgM/αIgG/αCD40 stimulation in HS-5 stromal cell co-culture; format: cell-based, human; conditions: for Maximal % Apoptosis: +HS-5, 1 μM compound, 66-72 hr post-compound addition, duplicate wells
Method: as §1, §2
One day prior to plating of primary CLL cells, wells of a U-bottom 96-well plate were coated with 3.0×10^4 HS-5 cells and allowed to adhere overnight in a humidified 37° C. incubator supplemented with 5% CO2.
as §3, §4, §5, §6, §7
EC50 values were calculated based on log concentration of drug and percent Annexin V^+/Live-Dead^− and Annexin V^−/Live-Dead^+ cells using a 4 parameter nonlinear regression algorithm in Prism 6.01 of the GraphPad software (San Diego, Calif. USA, www.graphpad.com). […]

[3] = tested on: CLL; conditions: human, in vivo; cited from earlier work

Compound	average maximal apoptosis ([1]; 1 μM compound, αIgM/αIgG/αCD40 stimulated, 5 donors) [%]	Maximal % Apoptosis ([1]; Donor 3, 1 μM compound) [%]	Maximal % Apoptosis ([1]; Donor 4, 1 μM compound) [%]	Maximal % Apoptosis ([1]; Donor 5, 1 μM compound) [%]	Maximal % Apoptosis ([1]; Donor 6, 1 μM compound) [%]	Maximal % Apoptosis ([1]; Donor 10, 1 μM compound) [%]	EC50 ([1]; Homo sapiens, CLL cell, primary CLL cells stimulated with αIgM/αIgG/αCD40, N=4, 66-72 h, read-out: geometric mean EC50 (±standard deviation) for induction of apoptosis) [nM]	Maximal % Apoptosis ([2]; Donor 3) [%]	Maximal % Apoptosis ([2]; Donor 4) [%]	apoptosis levels versus background in the presence of HS-5 co-culture ([2]; HS-5 co-culture, 5 donors tested, mean EC50 not reported)	apoptosis observed in all CLL samples tested [1] [%]	average maximal proportion of apoptotic cells [1] [%]	clinical efficacy in CLL [3]	dose-responsive effect in inducing apoptosis ([1]; primary CLL cells, single agent)
CC#CC(=O)N1CC[C@@H](n2c(=O)n(-c3ccc(Oc4ccccc4)cc3)c3c(N)ncnc32)C1 [Compound A1, 6-amino-9-[(3R)-1-(2-butynoyl)-3-pyrrolidinyl]-7-(4-phenoxyphenyl)-7,9-dihydro-8H-purin-8-one]	21.1	30.0	67.3	10.4	14.1	20.0	27.2 ± 11.3	10.1	45.5	generally not increased above background in 3/5 donors tested				
CC1(C)CCC(CN2CCN(c3ccc(C(=O)NS(=O)(=O)c4ccc(NCC5CCOCC5)c([N+](=O)[O-])c4)c(Oc4cnc5[nH]ccc5c4)c3)CC2)=C(c2ccc(Cl)cc2)C1 [Compound B1, 4-[4-[[2-(4-chlorophenyl)-4,4-dimethyl-1-cyclohexen-1-yl]methyl]-1-piperazinyl]-N-[[3-nitro-4-[[(tetrahydro-2H-pyran-4-yl)methyl]amino]phenyl]sulfonyl]-2-(1H-pyrrolo[2,3-b]pyridin-5-yloxy)-benzamide]		66.1	87.3	38.3	31.6	35.8		30.8	80.8		> 60	91.4	clinical efficacy in CLL	
CCC(Nc1ncnc2[nH]cnc12)c1nc2cccc(F)c2c(=O)n1-c1ccccc1 (stereo not shown) [Compound C1, 2-(1-((9H-Purin-6-yl)amino)propyl)-5-fluoro-3-phenylquinazolin-4(3H)-one]		50.8	60.1	12.1	15.0	17.6		15.2	30.6			23		dose-responsive effect
c1cn2cc(-c3ccc4cn[nH]c4c3)nc(Nc3ccc(N4CCOCC4)cc3)c2n1 [Compound D1, 6-(1H-indazol-6-yl)-N-(4-morpholinophenyl)imidazo[1,2-a]pyrazin-8-amine]											> 60		clinical efficacy in CLL	
